Holding throughout (assay): Kirby-Bauer Test (Zone of Inhibition), agar diffusion
Common to all, as to type: cell-based
On the technique in general: A growth-free zone around the sample is the usual read-out of agar diffusion tests.

Assay [1] deals with Staphylococcus aureus (ATCC 6538). As for the experimental part: (§1) Kirby-Bauer Test (Zone of Inhibition):
(§2) The Kirby-Bauer Test is also known as Agar Diffusion Test and can be used for determination of antimicrobial activity in combination with diffusion properties. […] A suspension of the bacterial or fungal strain of interest is spread evenly over the face of a sterile agar plate. The antimicrobial test substrate (preferential liquid aggregation state) is applied to the center of the agar plate onto a small filter paper. The agar plate is incubated for a defined time at a temperature suitable for the test microorganisms. If the test substrate leaches from the filter paper into the agar and it further contains antimicrobial activity, a zone of inhibition is formed around the filter paper.

Assay [2] concerns Exophiala dermatitidis (isolate). The protocol:
as §1, §2

Assay [3] relates to Aspergillus brasiliensis (ATCC 16404). The protocol:
as §1, §2

Setting [4] is: dilution ratio 1:10, maximum 45 mm.
Where [5] appears, read: dilution ratio 1:100, maximum 45 mm.

With `c1ccncc1` [Pyridine], the “Zone of Inhibition” value is listed as 0.0 mm in assay [1] (setting [4]); 0.0 mm in assay [1] (setting [5]); 1.0 mm in assay [1] (undiluted, maximum 45 mm); 0.0 mm in assay [2] (setting [4]); 0.0 mm in assay [2] (setting [5]); 1.0 mm in assay [2] (undiluted, maximum 45 mm). Further, the “Zone of Inhibition” value came out at 0.0 mm in assay [3] (setting [4]); 0.0 mm in assay [3] (setting [5]); 0.0 mm in assay [3] (undiluted, maximum 45 mm).

As to `CCCCn1ccnc1` [1-Butyl-1H-imidazole], the “Zone of Inhibition” value in assay [1] (undiluted, maximum 45 mm) is 11.0 mm; in assay [2] (undiluted, maximum 45 mm), 15.0 mm; in assay [3] (undiluted, maximum 45 mm) it was 5.0 mm.

On to `Cn1ccnc1` [1-methyl-1H-imidazole], for which the “Zone of Inhibition” value in assay [1] (setting [4]) came out at 0.0 mm; in assay [1] (setting [5]) it was 0.0 mm; in assay [1] (undiluted, maximum 45 mm), 6.5 mm; in assay [2] (setting [4]) it was 0.0 mm; in assay [2] (setting [5]), 0.0 mm; in assay [2] (undiluted, maximum 45 mm), 12.3 mm. Besides, the “Zone of Inhibition” value in assay [3] (setting [4]) came out at 0.0 mm; in assay [3] (setting [5]) it was 0.0 mm; in assay [3] (undiluted, maximum 45 mm), 3.5 mm.

The values above are taken from patent US12247106B2, “Onium-functionalized siloxanes” (Henkel AG & Co. KGaA, priority 2019, dated 2025).
